Legend:
[1] = Free Ca2+ after addition of test substance, fluorimetric with FURA 2; format: physicochemical; settings: free Ca²⁺ after addition of 1 mmol (1 mM) test substance; pH 7,1; control without fatty acid 200
Procedure: Die erfindungsgemäßen alpha-Hydroxyfettsäuren haben gegenüber Schwermetallionen, z.B. Fe²⁺ oder Erdalkali-Ionen wie Ca²⁺ eine hohe Bindungsfähigkeit, wie die folgende Untersuchung zeigt: a) Konzentration an freiem Ca²⁺ nach Zugabe von 1 mmol Testsubstanz
(§1) Der Testpuffer (100 mM KCl, 10 mM HEPES, 1 mM EGTA 0,5 mM CaCl₂, pH 7,1) wurden mit je 1 mM der Testsubstanz versetzt. Entstehende Niederschläge wurden abfiltriert. Das Filtrat wurde mit KOH auf pH 7,1 eingestellt und mit 1 µM FURA 2 versetzt. Die Konzentration an Ca²⁺ wurde fluorimetrisch bestimmt (Anregung 340 nm, 359 nm, 380 nm, Emission 510 nm). b) Konzentration an freiem Fe²⁺ nach Zugabe von 1 mmol alpha-Hydroxypalmitinsäure

Klebsiella pneumoniae = experiment: Minimal inhibitory concentration; format: cell-based; settings: 72 h incubation
Procedure: (§2) Bestimmung der minimalen Hemmkonzentration Eine frische Übernachtkultur des Testorganismus wurde 1:10⁴ in Nährmedium (5 g/ltr Tryptone, 3 g/ltr Hefeextrakt, pH 7,0) verdünnt und 3h inkubiert (30° C, 250 rpm). Anschließend wurde alpha-Hydroxy-palmitinsäure (D) in einer Endkonzentration von 2,0%; 1,5%; 1,0%; 0,75%; 0,5%; 0,25%; 0,1% und 0,06% zugegeben. Nach 72 h Inkubationszeit wurden der Bakterientiter durch Verdünnung und Ausplattierung überprüft. Bei den Ansätzen, bei denen keine Bakterien nachweisbar waren, wurde 1 ml des Ansatzes mit 9 ml Nährmedium versetzt und über Nacht inkubiert (30° C, 250 rpm). […]

[2] = system: Staphylococcus epidermidis; experiment: Minimal inhibitory concentration; format: cell-based; settings: 72 h incubation
Procedure: as §2

Escherichia coli = experiment: Minimal inhibitory concentration; format: cell-based; settings: 72 h incubation
Procedure: as §2

Pseudomonas aeruginosa = experiment: Minimal inhibitory concentration; format: cell-based; settings: 72 h incubation
Procedure: as §2

Salmonella livingstone = experiment: Minimal inhibitory concentration; format: cell-based; settings: 72 h incubation
Procedure: as §2

Corynebacterium xerosis = experiment: Minimal inhibitory concentration; format: cell-based; settings: 72 h incubation
Procedure: as §2

[3] = system: Acinetobacter calcoaceticus; experiment: Minimal inhibitory concentration; format: cell-based; settings: 72 h incubation
Procedure: as §2

Micrococcus luteus = experiment: Minimal inhibitory concentration; format: cell-based; settings: 72 h incubation
Procedure: as §2

Pseudomonas putida = experiment: Minimal inhibitory concentration; format: cell-based; settings: 72 h incubation
Procedure: as §2

[4] = Free Fe2+ after addition of test substance, photometric with 2,2'-Bipyridin; format: physicochemical; settings: 1 mmol test substance mixed with 1 mmol Fe²⁺
Procedure: as §1
1 mmol Testsubstanz wurde mit 1 mmol Fe²⁺ versetzt. Entstehende Niederschläge wurden abfiltriert. Die Filtrate wurden mit 2,2'-Bipyridin versetzt und bei 565 nm photometrisch vermessen.

Row | SMILES | Konz. Ca²⁺ [1] | Konz. Fe²⁺ [4] | further results
1 | O=C(O)CN(CCN(CC(=O)O)CC(=O)O)CC(=O)O [EDTA] | 25 nmol | – | –
2 | CCCCCCCCCCCCC(O)C(=O)O (stereo not drawn) [alpha-Hydroxy-myristinsäure] | 32 nmol | – | –
3 | CCCCCCCCCCCCCCCC(=O)O [Palmitinsäure] | 249 nmol | – | –
4 | CCCCCCCCCCCCCC(=O)O [Myristinsäure] | 233 nmol | – | –
5 | CCCCCCCCCCCCCC[C@@H](O)C(=O)O [alpha-OH-Hexadecansäure (D), alpha-Hydroxy-hexadecansäure] | – | – | Minimale Hemmkonzentration (Klebsiella pneumoniae): 0,50%; Minimale Hemmkonzentration [2]: 0,10%; Minimale Hemmkonzentration (Escherichia coli): 0,50%; Minimale Hemmkonzentration (Pseudomonas aeruginosa): 0,25%; Minimale Hemmkonzentration (Salmonella livingstone): 0,50%; Minimale Hemmkonzentration (Corynebacterium xerosis): 0,10%; Minimale Hemmkonzentration [3]: 0,75%; Minimale Hemmkonzentration (Micrococcus luteus): 0,25%; Minimale Hemmkonzentration (Pseudomonas putida): 0,10%
6 | O=C(O)C(O)c1ccccc1 (stereo not shown) [Mandelsäure] | 200 nmol | 100 µmol | –
7 | O=C(O)CC(O)(CC(=O)O)C(=O)O [Citronensäure] | 139 nmol | 110 µmol | –
8 | CCCCCCCCCCCCCCC(O)C(=O)O (stereo not drawn) [alpha-Hydroxypalmitinsäure] | 38 nmol | 20 µmol | –

Source: patent EP0556660A1, “Utilisation of fatty alpha-hydroxy acids and the compositions containing them” (Beiersdorf Aktiengesellschaft, priority 1992, dated 1993)
